Data as given in patent US20230085307A1, “PYRIDAZINONE COMPOUND AND HERBICIDE” (NISSAN CHEMICAL CORPORATION, priority 2019, published 2023).

Tests used:
Japanese bulrush [1] = test: Test Example 1: herbicidal activity, application before weed generation under submerged conditions (Table 16, symbol B); type: in vivo, Japanese bulrush (Schoenoplectus juncoides); conditions: amount of applied herbicide 320 g/ha
Outline: (§1)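 Alluvial soil was flooded to 4 cm depth, weed seeds were sown mixed and 2.5-leaf rice seedlings were transplanted. On sowing day, the compound's emulsion, diluted in water to a set dose, was applied to the water surface. Plants grew at 25–30 °C and were scored 0–5 after three weeks.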

velvetleaf = test: Test Example 5: herbicidal effect by foliage application, plastic box (Table 20, symbol M); type: in vivo, velvetleaf (Abutilon theophrasti); conditions: 320 g/ha; for M: velvetleaf, herbicidal effect grade: foliage application, three weeks after application
Outline: (§2)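 Foliar spray test: emulsion formulation diluted in water to a set application rate, sprayed onto 14-day-old plants raised in diluvial soil at 25° C to 30° C under glass. Both herbicidal effect and crop effect rated visually three weeks later.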

southern crabgrass = test: Test Example 5: herbicidal effect by foliage application, plastic box (Table 20, symbol F); type: in vivo, southern crabgrass (Digitaria ciliaris); conditions: 320 g/ha; for F: southern crabgrass, herbicidal effect grade: foliage application, three weeks after application
Outline: as §2

oval-leafed pondweed [2] = test: Test Example 1: herbicidal activity, application before weed generation under submerged conditions (Table 16, symbol C); type: in vivo, oval-leafed pondweed (Monochoria vaginalis); conditions: amount of applied herbicide 320 g/ha
Outline: as §1

persian speedwell = test: Test Example 5: herbicidal effect by foliage application, plastic box (Table 20, symbol R); type: in vivo, Persian speedwell (Veronica persica); conditions: 320 g/ha; for R: persian speedwell, herbicidal effect grade: foliage application, three weeks after application
Outline: as §2

rice flat sedge = test: Test Example 3: herbicidal effect by foliage application, Wagner pot (Table 18, symbol E); type: in vivo, rice flat sedge (Cyperus iria); conditions: for herbicidal effect on E: rice flat sedge: amount of applied herbicide 320 g/ha
Outline: (§3)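 Plants were sown in alluvial soil held under 0.1–0.5 cm standing water and grown 14 days in a greenhouse at 25–30 °C. An emulsifiable formulation, water-diluted to the set dose, was then sprayed onto the foliage, and effects were scored three weeks later using previously defined criteria.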

barnyard grass [3] = test: Test Example 5: herbicidal effect by foliage application, plastic box (Table 20, symbol H); type: in vivo, barnyard grass (Echinochloa crus-galli); conditions: 320 g/ha; for H: barnyard grass, herbicidal effect grade: foliage application, three weeks after application
Outline: as §2

late watergrass [4] = test: Test Example 1: herbicidal activity, application before weed generation under submerged conditions (Table 16, symbol A); type: in vivo, late watergrass (Echinochloa oryzicola); conditions: amount of applied herbicide 320 g/ha
Outline: as §1

windgrass = test: Test Example 5: herbicidal effect by foliage application, plastic box (Table 20, symbol L); type: in vivo, windgrass (Apera spica-venti); conditions: 320 g/ha; for L: windgrass, herbicidal effect grade: foliage application, three weeks after application
Outline: as §2

Italian ryegrass = test: Test Example 5: herbicidal effect by foliage application, plastic box (Table 20, symbol K); type: in vivo, Italian ryegrass (Lolium multiflorum); conditions: 320 g/ha; for K: Italian ryegrass, herbicidal effect grade: foliage application, three weeks after application
Outline: as §2

wild oat = test: Test Example 5: herbicidal effect by foliage application, plastic box (Table 20, symbol I); type: in vivo, wild oat (Avena fatua); conditions: 320 g/ha; for I: wild oat, herbicidal effect grade: foliage application, three weeks after application
Outline: as §2

late watergrass [5] = test: Test Example 2: herbicidal activity, application during weed generation under submerged conditions (Table 17, symbol A); type: in vivo, late watergrass (Echinochloa oryzicola); conditions: AAH 320 g/ha; application during weed generation, submerged conditions
Outline: (§4)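 Wagner pot, alluvial soil, 4 cm flood; mixed sowing of all species; greenhouse 25° C.–30° C. Emulsifiable formulation, water-diluted to predetermined dose, applied to paddy water at 1–2 leaf stage. Effect rated at 3 wk using the earlier test's scoring criteria.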

redroot pigweed = test: Test Example 5: herbicidal effect by foliage application, plastic box (Table 20, symbol N); type: in vivo, redroot pigweed (Amaranthus retroflexus); conditions: 320 g/ha; for N: redroot pigweed, herbicidal effect grade: foliage application, three weeks after application
Outline: as §2

Chinese sprangletop = test: Test Example 3: herbicidal effect by foliage application, Wagner pot (Table 18, symbol D); type: in vivo, chinese sprangletop (Leptochloa chinensis); conditions: for herbicidal effect on D: Chinese sprangletop: amount of applied herbicide 320 g/ha
Outline: as §3

green foxtail = test: Test Example 5: herbicidal effect by foliage application, plastic box (Table 20, symbol G); type: in vivo, green foxtail (Setaria viridis); conditions: 320 g/ha; for G: green foxtail, herbicidal effect grade: foliage application, three weeks after application
Outline: as §2

lambsquarters = test: Test Example 5: herbicidal effect by foliage application, plastic box (Table 20, symbol O); type: in vivo, lambsquarters (Chenopodium album); conditions: 320 g/ha; for O: lambsquarters, herbicidal effect grade: foliage application, three weeks after application
Outline: as §2

chickweed = test: Test Example 5: herbicidal effect by foliage application, plastic box (Table 20, symbol P); type: in vivo, common chickweed (Stellaria media); conditions: 320 g/ha; for P: chickweed, herbicidal effect grade: foliage application, three weeks after application
Outline: as §2

barnyard grass [6] = test: Test Example 3: herbicidal effect by foliage application, Wagner pot (Table 18, symbol H); type: in vivo, barnyard grass (Echinochloa crus-galli); conditions: for herbicidal effect on H: barnyard grass: amount of applied herbicide 320 g/ha
Outline: as §3

blackgrass = test: Test Example 5: herbicidal effect by foliage application, plastic box (Table 20, symbol J); type: in vivo, blackgrass (Alopecurus myosuroides); conditions: 320 g/ha; for J: blackgrass, herbicidal effect grade: foliage application, three weeks after application
Outline: as §2

oval-leafed pondweed [7] = test: Test Example 2: herbicidal activity, application during weed generation under submerged conditions (Table 17, symbol C); type: in vivo, oval-leafed pondweed (Monochoria vaginalis); conditions: AAH 320 g/ha; application during weed generation, submerged conditions
Outline: as §4

Japanese bulrush [8] = test: Test Example 2: herbicidal activity, application during weed generation under submerged conditions (Table 17, symbol B); type: in vivo, Japanese bulrush (Schoenoplectus juncoides); conditions: AAH 320 g/ha; application during weed generation, submerged conditions
Outline: as §4

[9] = foliage application after 14-day growth, evaluated three weeks after application

| SMILES | Herbicidal effect, B: Japanese bulrush (Japanese bulrush [1]) | M: velvetleaf, herbicidal effect grade (velvetleaf) | F: southern crabgrass, herbicidal effect grade (southern crabgrass) | Herbicidal effect, C: oval-leafed pondweed (oval-leafed pondweed [2]) | R: persian speedwell, herbicidal effect grade (persian speedwell) | herbicidal effect on E: rice flat sedge (rice flat sedge) | H: barnyard grass, herbicidal effect grade (barnyard grass [3]) | Herbicidal effect, A: late watergrass (late watergrass [4]) | L: windgrass, herbicidal effect grade (windgrass) | K: Italian ryegrass, herbicidal effect grade (Italian ryegrass) | I: wild oat, herbicidal effect grade (wild oat) | herbicidal effect rating, A: late watergrass (late watergrass [5]) | N: redroot pigweed, herbicidal effect grade (redroot pigweed) | herbicidal effect on D: Chinese sprangletop (Chinese sprangletop) | G: green foxtail, herbicidal effect grade (green foxtail) | O: lambsquarters, herbicidal effect grade (lambsquarters) | P: chickweed, herbicidal effect grade (chickweed) | herbicidal effect on H: barnyard grass (barnyard grass [6]) | herbicidal effect rating, C: oval-leafed pondweed (oval-leafed pondweed [7]) | herbicidal effect rating, B: Japanese bulrush (Japanese bulrush [8]) | further results |
| --- | --- | --- | --- | --- | --- | --- | --- | --- | --- | --- | --- | --- | --- | --- | --- | --- | --- | --- | --- | --- | --- |
| CCCC(=O)Oc1c(CC)nn(C)c(=O)c1-c1c(-c2ccc(OC(F)(F)F)cc2)sc2ccc(F)cc12 [2-413] | 0 (Herbicidal rate of 5% or less (almost no effect)) | 4 (Herbicidal rate of 70% or more and less than 90%) | 0 (Herbicidal rate of 5% or less (almost no effect)) | 0 (Herbicidal rate of 5% or less (almost no effect)) | 5 (Herbicidal rate of 90% or more (almost completely withered)) | 4 (Herbicidal rate of 70% or more and less than 90%) | 1 (Herbicidal rate of 5% or more and less than 20%) | 3 (Herbicidal rate of 40% or more and less than 70%) | 0 (Herbicidal rate of 5% or less (almost no effect)) | 2 (Herbicidal rate of 20% or more and less than 40%) | 0 (Herbicidal rate of 5% or less (almost no effect)) | 3 (Herbicidal rate of 40% or more and less than 70%) | 4 (Herbicidal rate of 70% or more and less than 90%) | 4 (Herbicidal rate of 70% or more and less than 90%) | 3 (Herbicidal rate of 40% or more and less than 70%) | 4 (Herbicidal rate of 70% or more and less than 90%) | 5 (Herbicidal rate of 90% or more (almost completely withered)) | 5 (Herbicidal rate of 90% or more (almost completely withered)) | 0 (Herbicidal rate of 5% or less (almost no effect)) | 1 (Herbicidal rate of 5% or more and less than 20%) | J: blackgrass, herbicidal effect grade (blackgrass): 0 (Herbicidal rate of 5% or less (almost no effect)) |
| CCCOc1ccc(-c2sc3ccc(F)cc3c2-c2c(O)c(CC)nn(C)c2=O)cc1 [2-418] | 4 (Herbicidal rate of 70% or more and less than 90%) | 5 (Herbicidal rate of 90% or more (almost completely withered)) | 2 (Herbicidal rate of 20% or more and less than 40%) | 2 (Herbicidal rate of 20% or more and less than 40%) | 5 (Herbicidal rate of 90% or more (almost completely withered)) | 5 (Herbicidal rate of 90% or more (almost completely withered)) | 4 (Herbicidal rate of 70% or more and less than 90%) | 4 (Herbicidal rate of 70% or more and less than 90%) | 4 (Herbicidal rate of 70% or more and less than 90%) | 4 (Herbicidal rate of 70% or more and less than 90%) | 0 (Herbicidal rate of 5% or less (almost no effect)) | 2 (Herbicidal rate of 20% or more and less than 40%) | 5 (Herbicidal rate of 90% or more (almost completely withered)) | 3 (Herbicidal rate of 40% or more and less than 70%) | 3 (Herbicidal rate of 40% or more and less than 70%) | 5 (Herbicidal rate of 90% or more (almost completely withered)) | 5 (Herbicidal rate of 90% or more (almost completely withered)) | 5 (Herbicidal rate of 90% or more (almost completely withered)) | 0 (Herbicidal rate of 5% or less (almost no effect)) | 3 (Herbicidal rate of 40% or more and less than 70%) | J: blackgrass, herbicidal effect grade (blackgrass): 4 (Herbicidal rate of 70% or more and less than 90%) |
| COc1ccc2c(-c3c(OC(=O)C(C)c4ccccc4)c(C)nn(C)c3=O)c(-c3ccccc3OC)sc2c1 (stereo not drawn) [3-157] | 3 (Herbicidal rate of 40% or more and less than 70%) |  |  | 3 (Herbicidal rate of 40% or more and less than 70%) |  |  |  | 5 (Herbicidal rate of 90% or more (almost completely withered)) |  |  |  | 4 (Herbicidal rate of 70% or more and less than 90%) |  |  |  |  |  |  | 4 (Herbicidal rate of 70% or more and less than 90%) | 3 (Herbicidal rate of 40% or more and less than 70%) | herbicidal effect on M: velvetleaf (evaluation grade 0-5) (velvetleaf; [9]): 5 (Herbicidal rate of 90% or more (almost completely withered)); herbicidal effect on F: southern crabgrass (evaluation grade 0-5) (southern crabgrass; [9]): 4 (Herbicidal rate of 70% or more and less than 90%); herbicidal effect on R: persian speedwell (evaluation grade 0-5) (persian speedwell; [9]): 4 (Herbicidal rate of 70% or more and less than 90%); herbicidal effect on rice flat sedge (E) (rice flat sedge; 320 g/ha): 3 (Herbicidal rate of 40% or more and less than 70%); herbicidal effect on H: barnyard grass (evaluation grade 0-5) (barnyard grass [3]; [9]): 5 (Herbicidal rate of 90% or more (almost completely withered)); herbicidal effect on L: windgrass (evaluation grade 0-5) (windgrass; [9]): 5 (Herbicidal rate of 90% or more (almost completely withered)); herbicidal effect on K: Italian ryegrass (evaluation grade 0-5) (Italian ryegrass; [9]): 3 (Herbicidal rate of 40% or more and less than 70%); herbicidal effect on I: wild oat (evaluation grade 0-5) (wild oat; [9]): 3 (Herbicidal rate of 40% or more and less than 70%); herbicidal effect on N: redroot pigweed (evaluation grade 0-5) (redroot pigweed; [9]): 4 (Herbicidal rate of 70% or more and less than 90%); herbicidal effect on Chinese sprangletop (D) (Chinese sprangletop; 320 g/ha): 3 (Herbicidal rate of 40% or more and less than 70%); herbicidal effect on G: green foxtail (evaluation grade 0-5) (green foxtail; [9]): 4 (Herbicidal rate of 70% or more and less than 90%); herbicidal effect on O: lambsquarters (evaluation grade 0-5) (lambsquarters; [9]): 4 (Herbicidal rate of 70% or more and less than 90%); herbicidal effect on P: chickweed (evaluation grade 0-5) (chickweed; [9]): 4 (Herbicidal rate of 70% or more and less than 90%); herbicidal effect on barnyard grass (H) (barnyard grass [6]; 320 g/ha): 5 (Herbicidal rate of 90% or more (almost completely withered)); herbicidal effect on J: blackgrass (evaluation grade 0-5) (blackgrass; [9]): 4 (Herbicidal rate of 70% or more and less than 90%) |
